# Laboratory results published in patent publication US20250122166A1, “SUBSTITUTED N-((2-(2,6-DIOXOPIPERIDIN-3-YL)-1-OXOISOINDOLIN-4-YL)METHYL)BENZAMIDE ANALOGS AS MODULATORS OF CEREBLON PROTEIN” (ST. JUDE CHILDREN'S RESEARCH HOSPITAL, INC., priority 2021, published 2025).
# Columns and labels:
# neosubstrate degradation = conditions: relative to lenalidomide; cited from earlier work
# MOLM-13 cells = assay: Cell proliferation assay (Cell Titer-Glo, 72 h); format: cell-based; conditions: Homo sapiens, 72 h incubation, * = cytostatic 50%
# Description: MOLM-13 cell line was purchased from the Leibniz Institute DSMZ (ACC 554). The cells were cultured according to recommendations in RPMI 1640 cell culture media with 20% FBS (DSMZ). Exponentially growing MOLM-13 cells were plated at 1250 cells per well in Corning 8804BC white 384-well assay plates and incubated overnight at 37° C. in a humidified 5% CO2 incubator. Compounds were transferred to the assay plate from a dose-response plate using a Pintool on a Biomek FXP Laboratory Automation Workstation (Beckman Coulter). Cytotoxicity was determined following 72 hours of incubation using Promega Cell Titer Glo reagent according to the manufacturer's recommendation. Luminescence was measured on an Envision plate reader (Perkin-Elmer).
# Compounds were screened in human cancer cell lines and each cell line was cultured in the complete medium recommended by the vendor and seeded in Corning 8804BC white 384-well assay plates at density of 1250 cells per well for MOLM-13 cells. After overnight incubation at 37° C. in a humidified 5% CO2 incubator, cells were treated with compounds in dose-response format using a Pintool on a Biomek FXP Laboratory Automation Workstation (Beckman Coulter). After 72h incubation, cell proliferation was assessed using Cell Titer-Glo (CTG) luminescent cell viability assay (Promega) according to the manufacturer's instruction. Luminescence signal was measured using an Envision plate reader (Perkin-Elmer).
# 6XHis-CRBN-DDB1 protein = 6XHis-CRBN-DDB1 protein (Homo sapiens (Human), UniProt Q96SW2); assay: CRBN fluorescence polarization assay (competitive, Cy5-O-Len probe); format: binding; conditions: 6XHis-CRBN-DDB1 200 nM, Cy5-O-Len probe 30 nM, 1 hour; mean of three determinations; read-out: CRBN FP (IC50)
# Description: In this competitive fluorescent polarization assay Cy5 conjugated lenalidomide analog (Cy5—O-Len)^1 was used as a fluorescent probe. 6XHis-CRBN-DDB1 protein (200 nM) and Cy5—O-Len probe (30 nM) were combined in 20 mM HEPES pH 7, 150 mM NaCl, 0.005% Tween-20 assay buffer. 20 μL of this assay cocktail was dispensed into wells of Corning 3821 black 384-well plates. Compounds were transferred to the assay plate from a dose-response plate using a Pintool on a Biomek FXP Laboratory Automation Workstation (Beckman Coulter). The plates were incubated in the dark for 1 hour at room temperature and then read on an Envision plate reader (PerkinElmer, Massachusetts, USA). IC50 values were determined using a proprietary software RISE (Robust Investigation of Screening Experiments), developed in house on the Pipeline Pilot platform (Biovia, v. 17.2.0). Data represent the mean of three independent determinations.
Compound,EC50 (MOLM-13 cells) [nM],IC50 (6XHis-CRBN-DDB1 protein) [nM],fold more potent in cells than lenalidomide (neosubstrate degradation) [fold]
O=C1CC[C@H](N2Cc3c(OCc4ccc(CN5CCOCC5)cc4)cccc3C2=O)C(=O)N1 [CC-220],–,–,10
"O=C1CCC(N2Cc3c(CNC(=O)c4cccc(OC(F)(F)F)c4)cccc3C2=O)C(=O)N1 (stereo not shown) [Compound 20, N-((2-(2,6-dioxopiperidin-3-yl)-1-oxoisoindolin-4-yl)methyl)-3-(trifluoromethoxy)benzamide]",< 1000,1000 to 10000,–
"O=C1CCC(N2Cc3c(CNC(=O)c4ccc(F)c(Cl)c4)cccc3C2=O)C(=O)N1 (stereo not shown) [Compound 15, 3-chloro-N-((2-(2,6-dioxopiperidin-3-yl)-1-oxoisoindolin-4-yl)methyl)-4-fluorobenzamide]",< 1000,< 1000,–
"O=C1CCC(N2Cc3c(CNC(=O)c4cc(C(F)(F)F)cc(Cl)c4F)cccc3C2=O)C(=O)N1 (stereo not shown) [Compound 35, 3-chloro-N-((2-(2,6-dioxopiperidin-3-yl)-1-oxoisoindolin-4-yl)methyl)-2-fluoro-5-(trifluoromethyl)benzamide]",> 10000,< 1000,–
"O=C1CCC(N2Cc3c(CNC(=O)c4ccc(C(F)(F)F)c(F)c4)cccc3C2=O)C(=O)N1 (stereo not shown) [Compound 16, N-((2-(2,6-dioxopiperidin-3-yl)-1-oxoisoindolin-4-yl)methyl)-3-fluoro-4-(trifluoromethyl)benzamide]",< 1000,1000 to 10000,–
"O=C1CCC(N2Cc3c(CNC(=O)c4ccc5nc[nH]c5c4)cccc3C2=O)C(=O)N1 (stereo not shown) [Compound 42, N-((2-(2,6-dioxopiperidin-3-yl)-1-oxoisoindolin-4-yl)methyl)-1H-benzo[d]imidazole-6-carboxamide]",1000 to 10000,1000 to 10000,–
"O=C1CCC(N2Cc3c(CNC(=O)c4cc(F)ccc4F)cccc3C2=O)C(=O)N1 (stereo not shown) [Compound 37, N-((2-(2,6-dioxopiperidin-3-yl)-1-oxoisoindolin-4-yl)methyl)-2,5-difluorobenzamide]",> 10000,1000 to 10000,–
"O=C1CCC(N2Cc3c(CNC(=O)c4ccccc4C(F)(F)F)cccc3C2=O)C(=O)N1 (stereo not shown) [Compound 4, N-((2-(2,6-dioxopiperidin-3-yl)-1-oxoisoindolin-4-yl)methyl)-2-(trifluoromethyl)benzamide]",> 10000,1000 to 10000,–
"O=C1CCC(N2Cc3c(CNC(=O)c4ccc(F)c(C(F)(F)F)c4)cccc3C2=O)C(=O)N1 (stereo not shown) [Compound 22, N-((2-(2,6-dioxopiperidin-3-yl)-1-oxoisoindolin-4-yl)methyl)-4-fluoro-3-(trifluoromethyl)benzamide]",< 1000,< 1000,–

# Continued, in another order:
EC50 (MOLM-13 cells) [nM],IC50 (6XHis-CRBN-DDB1 protein) [nM],Compound,fold more potent in cells than lenalidomide (neosubstrate degradation) [fold]
< 1000,< 1000,"O=C1CCC(N2Cc3c(CNC(=O)c4ccc(-c5ccc(Cl)cc5)o4)cccc3C2=O)C(=O)N1 (stereo not shown) [Compound 44, 5-(4-chlorophenyl)-N-((2-(2,6-dioxopiperidin-3-yl)-1-oxoisoindolin-4-yl)methyl)furan-2-carboxamide]",–
< 1000,< 1000,"O=C1CCC(N2Cc3c(CNC(=O)c4ccc(Cl)cc4F)cccc3C2=O)C(=O)N1 (stereo not shown) [Compound 36, 4-chloro-N-((2-(2,6-dioxopiperidin-3-yl)-1-oxoisoindolin-4-yl)methyl)-2-fluorobenzamide]",–
< 1000,1000 to 10000,"O=C1CCC(N2Cc3c(CNC(=O)c4ccc(C(F)F)cc4)cccc3C2=O)C(=O)N1 (stereo not shown) [Compound 24, 4-(difluoromethyl)-N-((2-(2,6-dioxopiperidin-3-yl)-1-oxoisoindolin-4-yl)methyl)benzamide]",–
< 1000,1000 to 10000,"COc1cccc(C(=O)NCc2cccc3c2CN(C2CCC(=O)NC2=O)C3=O)c1 (stereo not shown) [Compound 1, N-((2-(2,6-dioxopiperidin-3-yl)-1-oxoisoindolin-4-yl)methyl)-3-methoxybenzamide]",–
> 10000,< 1000,"O=C1CCC(N2Cc3c(CNC(=O)c4cccc5[nH]ccc45)cccc3C2=O)C(=O)N1 (stereo not shown) [Compound 39, N-((2-(2,6-dioxopiperidin-3-yl)-1-oxoisoindolin-4-yl)methyl)-1H-indole-4-carboxamide]",–
< 1000,< 1000,"O=C(Cc1ccc(O)cc1)NCc1cccc2c1CN(C1CCC(=O)NC1=O)C2=O (stereo not shown) [Compound 40, N-((2-(2,6-dioxopiperidin-3-yl)-1-oxoisoindolin-4-yl)methyl)-2-(4-hydroxyphenyl)acetamide]",–
< 1000,1000 to 10000,"O=C1CCC(N2Cc3c(CNC(=O)c4ccc(C(F)(F)F)cc4)cccc3C2=O)C(=O)N1 (stereo not shown) [Compound 13, N-((2-(2,6-dioxopiperidin-3-yl)-1-oxoisoindolin-4-yl)methyl)-4-(trifluoromethyl)benzamide]",–
